Results as given in patent US20120213758A1, “BIARYL PDE4 INHIBITORS FOR TREATING PULMONARY AND CARDIOVASCULAR DISORDERS” (DeCODE Genetics enf, priority 2007, published 2012).
Counter-ions that a name gives are not always drawn. Like-named read-outs stand apart in the source and are kept apart here.

What was measured:
[1] = system: experimentally-induced interstitial cystitis; details: rats; frequency of urination decreased, urine volume per urination increased; cited from earlier work
hPDE4D = hPDE4D (Homo sapiens, UniProt Q08499); test: In-vitro real-time enzyme-coupled spectrophotometric assay for PDE4 enzymes (hPDE4D)
Sequence of hPDE4D (Q08499 whole entry): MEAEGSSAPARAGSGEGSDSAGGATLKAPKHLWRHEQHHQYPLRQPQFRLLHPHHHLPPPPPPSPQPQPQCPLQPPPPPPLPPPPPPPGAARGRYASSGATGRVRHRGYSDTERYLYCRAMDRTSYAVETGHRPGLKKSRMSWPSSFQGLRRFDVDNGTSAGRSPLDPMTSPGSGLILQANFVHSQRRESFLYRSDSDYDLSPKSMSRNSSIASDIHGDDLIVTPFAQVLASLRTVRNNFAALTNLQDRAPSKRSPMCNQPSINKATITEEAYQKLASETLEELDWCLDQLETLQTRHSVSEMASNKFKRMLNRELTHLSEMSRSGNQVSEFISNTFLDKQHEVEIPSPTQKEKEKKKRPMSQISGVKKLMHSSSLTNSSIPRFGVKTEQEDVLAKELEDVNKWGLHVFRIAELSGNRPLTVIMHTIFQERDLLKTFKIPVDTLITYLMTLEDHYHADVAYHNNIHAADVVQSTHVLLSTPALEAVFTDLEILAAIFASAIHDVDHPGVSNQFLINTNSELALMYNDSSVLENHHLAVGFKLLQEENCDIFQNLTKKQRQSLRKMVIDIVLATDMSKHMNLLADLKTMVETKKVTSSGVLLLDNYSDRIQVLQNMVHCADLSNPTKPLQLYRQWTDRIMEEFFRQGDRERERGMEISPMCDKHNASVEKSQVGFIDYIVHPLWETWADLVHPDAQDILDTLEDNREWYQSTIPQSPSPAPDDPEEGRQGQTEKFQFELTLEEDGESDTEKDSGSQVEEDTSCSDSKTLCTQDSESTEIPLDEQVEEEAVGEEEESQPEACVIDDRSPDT

hPDE4B = hPDE4B (Homo sapiens, UniProt Q07343); test: In-vitro real-time enzyme-coupled spectrophotometric assay for PDE4 enzymes (hPDE4B)
Sequence of hPDE4B (Q07343 whole entry): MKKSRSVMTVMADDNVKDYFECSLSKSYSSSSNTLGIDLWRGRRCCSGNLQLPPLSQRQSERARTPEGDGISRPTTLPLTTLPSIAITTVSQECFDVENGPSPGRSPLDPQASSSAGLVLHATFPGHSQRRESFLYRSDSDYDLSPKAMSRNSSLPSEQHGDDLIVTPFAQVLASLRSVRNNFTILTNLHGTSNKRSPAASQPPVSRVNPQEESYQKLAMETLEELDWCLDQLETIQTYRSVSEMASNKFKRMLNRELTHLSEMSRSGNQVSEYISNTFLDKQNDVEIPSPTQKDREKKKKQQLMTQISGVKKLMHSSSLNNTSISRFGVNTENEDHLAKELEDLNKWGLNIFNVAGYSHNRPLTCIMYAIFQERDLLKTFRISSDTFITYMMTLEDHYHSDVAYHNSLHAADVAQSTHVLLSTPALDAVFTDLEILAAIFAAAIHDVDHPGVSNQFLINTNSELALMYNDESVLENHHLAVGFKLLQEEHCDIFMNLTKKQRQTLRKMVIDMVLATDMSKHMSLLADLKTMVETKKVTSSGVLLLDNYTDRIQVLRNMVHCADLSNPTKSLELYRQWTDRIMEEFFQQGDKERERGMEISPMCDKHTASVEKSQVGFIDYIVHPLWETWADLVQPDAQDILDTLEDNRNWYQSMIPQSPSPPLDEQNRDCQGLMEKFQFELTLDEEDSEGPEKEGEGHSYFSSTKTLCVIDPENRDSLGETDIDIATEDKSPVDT

[2] = system: patients suffering from asthma and COPD; details: effect of cilomilast disappeared on long-term trial; cited from earlier work

Row | IC50 (hPDE4D) [µM] | IC50 (hPDE4B) [µM] | Compound | other results
1 | – | – | CCc1ccc2c(-c3cccc(Cl)c3)nc(=O)n(CC)c2n1 [YM976] | effect on experimentally-induced interstitial cystitis [1]: ameliorate the effects of experimentally-induced interstitial cystitis in rats
2 | < 5 | < 5 | COc1ccc(Cc2ccc(N(C)CC(=O)O)nc2)c(F)c1-c1cccc(Cl)c1 [Example A-074, {[5-(3′-chloro-2-fluoro-6-methoxy-biphenyl-3-ylmethyl)-pyridin-2-yl]-methyl-amino}-acetic acid] | –
3 | – | – | 1-[5-(3′-Chloro-2-fluoro-6-methoxy-biphenyl-3-ylmethyl)-pyrimitlin-2-yl]-piperidine-2-carboxylic acid [Example A-041] | IC50 (hPDE4D; read-out: hPDE4D activity, enzyme-coupled NADH assay, absorbance at 340 nm): < 5 µM; IC50 (hPDE4B; read-out: hPDE4B activity, enzyme-coupled NADH assay, absorbance at 340 nm): 5 to 20 µM
4 | < 5 | < 5 | COc1ccc(Cc2cnc(NS(N)(=O)=O)nc2)c(F)c1-c1cccc(C(C)=O)c1 [Example A-017] | –
5 | < 5 | < 5 | FC(F)Oc1ccc(Cc2ccc(-c3nnn[nH]3)nc2)cc1-c1cccc(Cl)c1 [Example A-076, 5-(3′-Chloro-6-difluoromethoxy-biphenyl-3-ylmethyl)-2-(1H-tetrazol-5-yl)-pyridine hydrochloride salt] | –
6 | < 5 | < 5 | COc1ccc(Cc2cnc(NC(N)=O)[n+]([O-])c2)c(F)c1-c1cccc(Cl)c1 [Example A-015] | –
7 | – | – | COc1ccc([C@]2(C#N)CC[C@@H](C(=O)O)CC2)cc1OC1CCCC1 [cilomilast] | clinical effect in asthma and COPD [2]: showed initially excellent results
8 | < 5 | < 5 | COc1ccc(Cc2cnc(NS(N)(=O)=O)nc2)c(F)c1-c1cccc(Cl)c1 [Example A-012] | –
9 | < 5 | < 5 | COc1ccc(Cc2cnc(N3CCC3C(=O)O)nc2)c(F)c1-c1cccc(Cl)c1 (centres unmarked) [Example A-049, 1-[5-(3′-Chloro-2-fluoro-6-methoxy-biphenyl-3-ylmethyl)-pyrimidin-2-yl]-azetidine-2-carboxylic acid] | –
10 | – | – | O=C(Nc1c(Cl)cncc1Cl)c1ccc(OC(F)F)c(OCC2CC2)c1 [roflumilast] | clinical effect in asthma and COPD [2]: showed initially excellent results
11 | < 5 | 5 to 20 | COc1ccc(Cc2ccc(NS(N)(=O)=O)c(O)c2)c(F)c1-c1cccc(Cl)c1 [Example A-011] | –
12 | < 5 | < 5 | CCNC(=O)NCc1ccc(Cc2ccc(OC)c(-c3cccc(Cl)c3)c2F)c[n+]1[O-] [Example B-082, 1-[5-(3′-Chloro-2-fluoro-6-methoxy-biphenyl-3-ylmethyl)-1-oxy-pyridin-2-ylmethyl]-3-ethyl-urea] | –
13 | < 5 | 5 to 20 | CCOC(=O)CCCNC(=O)Nc1nnc(Cc2ccc(OC)c(-c3cccc(Cl)c3)c2F)s1 [Example A-030, 4-{3-[5-(3′-Chloro-2-fluoro-6-methoxy-biphenl-3-ylmethyl)-[1,3,4]thiadiazol-2-yl]-ureido}-butyric acid ethyl ester] | –
14 | < 5 | < 5 | COc1ccc(Cc2ccc(-c3nnn[nH]3)nc2)c(F)c1-c1cccc(Cl)c1 [Example A-042, 5-(3′-Chloro-2-fluoro-6-methoxy-biphenyl-3-ylmethyl)-2-(1H-tetrazol-5-yl)-pyridine] | –
15 | < 5 | < 5 | COc1ccc(Cc2ccc3cnc(C(=O)O)n3c2)c(F)c1-c1cccc(Cl)c1 [Example A-051, 6-(3′-Chloro-2-fluoro-6-methoxy-biphenyl-3-ylmethyl)-imidazo[1,5-a]pyridine-3-carboxylic acid hydrochloride] | –
16 | < 5 | < 5 | COc1ccc(Cc2ccc(C(=O)N3CCC(C(=O)O)C3)nc2)c(F)c1-c1cccc(Cl)c1 (centres unmarked) [Example A-038, 1-[5-(3′-Chloro-2-fluoro-6-methoxy-biphenyl-3-ylmethyl)-pyridine-2-carbonyl]-pyrrolidine-3-carboxylic acid] | –
